Source: patent US4952589A, “Pyridine compounds” (priority 1984, dated 1990)
pKi: −log10 of the molar value. Like-named read-outs stand apart in the source and are kept apart here.

Assays:
[1] = biological target: T1, brain histamine H2 -receptor (Cavia porcellus, UniProt P47747); assay: Inhibition of dimaprit stimulated cyclic AMP accumulation in guinea pig hippocampal slices; format: cell-based; details: for Ki: dimaprit stimulated cyclic AMP accumulation, guinea pig hippocampal slices, read-out: pKi (converted)
T1 construct: from tissue; host or cells: guinea pig cerebral cortex membranes

[2] = biological target: T2, histamine H2 -receptor (Cavia porcellus, UniProt P47747); assay: Inhibition of histamine-induced tachycardia in the isolated guinea-pig right atrium; format: cell-based
T2 construct: a spontaneously beating isolated portion of the guinea pig right atrium; from tissue; host or cells: guinea pig right atrium
Procedure: In the guinea pig atrium test a spontaneously beating isolated portion of the guinea pig right atrium is secured under tension (300 mg) between an anchorage and a transducer in a 15 ml tissue bath and immersed in McEwens solution with constant aeration at a temperature of 37° C. The output from the transducer is amplified. Output is in turn fed to a flat bed recorder. Measured amounts of histamine are added to the tissue bath so that the histamine concentration increases step-wise until the rate of beating reaches a maximum. The tissue bath is washed out and filled with fresh McEwens solution containing compound under test. The solution is left in contact with the tissue for 60 min. and measured amounts of histamine are added again until a maximum rate is recorded. The assay is repeated with increasing concentrations of test compound and the dose of histamine giving 50% of maximum rate is noted. A dose ratio (DR) was calculated by comparing the concentrations of histamine required to produce 50% maximum response in the absence and in the presence of the antagonist. A plot of Log DR-1 against LOG D (the concentration of compound under test) is made and the point of intersection with the Log (DR-1) ordinate is taken as the measure of the activity (pA2 value).

[3] = biological target: T1, brain histamine H2 -receptor; assay: Inhibition of 3H-tiotidine binding to guinea pig cerebral cortex membranes; details: for Ki: 3H-tiotidine, guinea pig cerebral cortex membranes, read-out: pKi cortex (converted)
[4] = tested on: leptazol-induced tonic extensor spasm; assay: Anticonvulsant activity: leptazol (pentylenetetrazol)-induced convulsions in mice; format: in vivo; details: subcutaneously, dose-dependent (stated for Examples 5 and 6)
[5] = tested on: maximal electroshock seizures; assay: Anticonvulsant activity: maximal electroshock seizures in mice; format: in vivo; details: subcutaneously
[6] = tested on: pial artery dilatation induced by histamine; assay: Cat pial artery in situ: antagonism of dilatation induced by perivascularly applied histamine; format: in vivo
[7] = physchem; details: octanol/water
[8] = Δ log P (log P octanol/water minus log P cyclohexane/water)
[9] = Blood-brain barrier penetration in urethane-anaesthetised rats (radiolabelled compound, infusion); details: rat, intravenous bolus then infusion, approximately 2 μM blood concentrations, at least 2 hours; separate determinations
Procedure: The levels of compound and inulin in the blood are monitored and the infusion maintained for at least 2 hours until equilibria (or at least approximate blood plateaux) are achieved. The rat is exsanguinated to minimise blood contamination of the brain. […] The tissues are weighed and then dissolved in a tissue solubiliser, e.g. Soluene-100 overnight at 37° C. in glass vials. […] Glacial acetic acid is added to each vial in order to neutralise the soluene and reduce chemiluminescence. Dimilume-30 (15 ml) is added as the scintillant and the vials left for 12 hours in the scintillation counter in order to further reduce chemiluminescence prior to counting for activity.

[10] = tested on: pial artery dilatation induced by histamine; details: cat, locally applied; Wahl & Kuschinsky; cited from earlier work
[11] = tested on: leptazol-induced tonic extensor spasm; details: mice; cited from earlier work
[12] = tested on: maximal electroshock seizures; details: mice; cited from earlier work
[13] = tested on: bicuculline injection induced convulsions; details: mice; cited from earlier work
[14] = isolated guinea pig right atrium, 37° C., 60 min contact, histamine agonist, read-out: pA2 (converted)

T2 sequence (P47747 whole entry): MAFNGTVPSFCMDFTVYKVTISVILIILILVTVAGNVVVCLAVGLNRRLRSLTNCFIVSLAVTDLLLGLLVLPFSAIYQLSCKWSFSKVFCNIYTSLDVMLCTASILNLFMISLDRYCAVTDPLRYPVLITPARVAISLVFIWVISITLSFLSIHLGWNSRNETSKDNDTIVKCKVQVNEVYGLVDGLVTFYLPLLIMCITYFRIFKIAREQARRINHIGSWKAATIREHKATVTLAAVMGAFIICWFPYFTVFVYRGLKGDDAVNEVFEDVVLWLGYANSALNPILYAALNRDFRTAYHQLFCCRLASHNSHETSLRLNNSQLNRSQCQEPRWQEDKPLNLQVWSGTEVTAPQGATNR
T1 sequence (P47747 whole entry): as above

Row | Kb [2, 14] [nM] | Ki [3] [nM] | SMILES | further results
1 | 63.1 | 25.1 | c1cc(CN2CCCCC2)cc(OCCCNc2nc3ccccc3[nH]2)c1 [Description 1, 2-[3-[3-(Piperidinomethyl)phenoxy]propylamino]benzimidazole] | Ki [1]: 37.2 nM
2 | 63.1 | 79.4 | c1cc(CN2CCCCC2)cc(OCCCNc2nc3ccccc3o2)c1 [Example 1, 2-[3-[3-(Piperidinomethyl)phenoxy]propylamino]benzoxazole] | doses protecting against leptazol-induced tonic extensor spasm [4]: 10 to 100 mg/kg; Ki [1]: 21.9 nM; doses protecting against maximal electroshock seizures [5]: 30 to 100 mg/kg
3 | 631 | 12.6 | c1cc(CN2CCCCC2)cc(OCCCNc2ccc3ccccc3n2)c1 [Example 3, 2-[3-[3-(Piperidinomethyl)phenoxy]propylamino]quinoline] | Ki [1]: 10.7 nM
4 | 2000 | 3160 | c1cnc(NCCCOc2cccc(CN3CCCCC3)c2)nc1 [Example 4, 2-[3-[3-(Piperidinomethyl)phenoxy]propylamino]pyrimidine] | Ki [1]: 22900 nM
5 | – | – | c1cc(CN2CCCCC2)cc(OCCCNc2nc3ccccc3s2)c1 [Example 5, 2-[3-[3-(Piperidinomethyl)phenoxy]propylamino]benzthiazole] | antagonism of pial artery dilatation induced by histamine ([6]; intravenous): antagonised the pial artery dilatation; antagonism of pial artery dilatation induced by histamine ([6]; locally applied): antagonised the pial artery dilatation; logP [7]: 1.46; doses protecting against leptazol-induced tonic extensor spasm [4]: 10 to 30 mg/kg; pKi [1]: 7.80; Δ log P [8]: 1.74; doses protecting against maximal electroshock seizures [5]: 30 to 100 mg/kg; Kb [2]: 25.1 nM; pKi [3]: 7.10
6 | 794 | 100 | c1ccc(NCCCOc2cccc(CN3CCCCC3)c2)nc1 [Example 6, 2-[3-[3-(Piperidinomethyl)phenoxy]propylamino]pyridine] | logP [7]: 2.88; doses protecting against leptazol-induced tonic extensor spasm [4]: 30 to 100 mg/kg; Ki [1]: 56.2 nM; doses protecting against maximal electroshock seizures [5]: 30 to 100 mg/kg
7 | 794 | 501 | COc1cccc(NCCCOc2cccc(CN3CCCCC3)c2)n1 [Example 7, 2-[3-[3-(Piperidinomethyl)phenoxy]propylamino]-6-methoxypyridine] | –
8 | 2000 | 200 | CCOc1cc(NCCCOc2cccc(CN3CCCCC3)c2)nc2ccccc12 [Example 8, 2-[3-[3-(Piperidinomethyl)phenoxy]propylamino]-4-ethoxyquinoline] | –
9 | 39.8 | 63.1 | c1cc(CN2CCCCC2)cc(OCCCNc2nccs2)c1 [Example 9, 2-[3-[3-(Piperidinomethyl)phenoxy]propylamino]thiazole] | Ki [1]: 63.1 nM
10 | 7940 | 31.6 | Cn1c(NCCCOc2cccc(CN3CCCCC3)c2)nc2ccccc21 [Example 10, 2-[3-[3-(Piperidinomethyl)phenoxy]propylamino]-1-methylbenzimidazole] | Ki [1]: 2 nM
11 | – | 794 | c1cncc(NCCCOc2cccc(CN3CCCCC3)c2)c1 [Example 11, 3-[3-[3-(Piperidinomethyl)phenoxy]propylamino]pyridine] | –
12 | 398 | 39.8 | c1cc(CN2CCCCC2)cc(OCCCNc2nccc3ccccc23)c1 [Example 12, 1-[3-[3-(Piperidinomethyl)phenoxy]propylamino]isoquinoline] | –
13 | 2510 | 126 | Cc1nc(NCCCOc2cccc(CN3CCCCC3)c2)sc1C [Example 14, 2-[3-[3-(Piperidinomethyl)phenoxy]propylamino]-4,5-dimethylthiazole] | –
14 | 6310 | 794 | c1cc(CN2CCCCC2)cc(OCCNc2nc3ccccc3s2)c1 [Example 16, 2-[2-[3-(Piperidinomethyl)phenoxy]ethylamino]benzthiazole] | –
15 | 126 | 158 | c1cc(CN2CCCCC2)cc(OCCCCNc2nc3ccccc3s2)c1 [Example 17, 2-[4-[3-(Piperidinomethyl)phenoxy]butylamino]benzthiazole] | –
16 | 631 | 39.8 | COc1cccnc1NCCCOc1cccc(CN2CCCCC2)c1 [Example 18, 2-[3-[3-(Piperidinomethyl)phenoxy]propylamino]-3-methoxypyridine] | –
17 | 20 | 25.1 | c1cc(CN2CCCCC2)cc(OCCCNc2ncnc3ccccc23)c1 [Example 19, 4-[3-[3-(Piperidinomethyl)phenoxy]propylamino]quinazoline] | –
18 | 1260 | 631 | CN(C)Cc1cccc(OCCCNc2nc3ccccc3s2)c1 [Example 21, 2-[3-[3-(Dimethylaminomethyl)phenoxy]propylamino]benzthiazole] | –
19 | 100 | 316 | c1cc(CN2CCCC2)cc(OCCCNc2nc3ccccc3s2)c1 [Example 22, 2-[3-[3-(Pyrrolidinomethyl)phenoxy]propylamino]benzthiazole] | –
20 | 316 | 1260 | c1cc(CN2CCCCCC2)cc(OCCCNc2nc3ccccc3s2)c1 [Example 23, 2-[3-[3-(Hexahydroazepinomethyl)phenoxy]propylamino]benzthiazole] | –
21 | 25100 | 398 | Cc1cc2nc(NCCCOc3cccc(CN4CCCCC4)c3)sc2cc1C [Example 24, 2-[3-[3-(Piperidinomethyl)phenoxy]propylamino]-5,6-dimethylbenzthiazole] | –
22 | 20000 | 3980 | c1cc(CN2CCCCC2)cc(OCCc2nc3ccccc3[nH]2)c1 [Example 26, 2-[2-[3-(Piperidinomethyl)phenoxy]ethyl]-1H-benzimidazole] | –
23 | 316 | 100 | c1cc(CN2CCCCC2)cc(OCCCc2nc3ccccc3[nH]2)c1 [Example 27, 2-[3-[3-(Piperidinomethyl)phenoxy]propyl]-1H-benzimidazole] | –
24 | 126 | 39.8 | c1cc(CN2CCCCC2)cc(OCCCCc2nc3ccccc3[nH]2)c1 [Example 28, 2-[4-[3-(Piperidinomethyl)phenoxy]butyl]-1H-benzimidazole] | –
25 | – | – | CN(C)CCCN1c2ccccc2CCc2ccccc21 [Imipramine] | molar ratio of compound in the brain to compound in the blood [9]: 3.5
26 | – | – | CN/C(=N/CCSCc1nc[nH]c1C)NC#N [cimetidine, reference compound] | antagonism of pial artery dilatation induced by histamine ([6]; intravenous): failed to antagonise; antagonism of pial artery dilatation induced by histamine [10]: antagonises the pial artery dilatation
27 | – | – | O=C1NC(=O)C(c2ccccc2)(c2ccccc2)N1 [phenytoin sodium] | antagonism of leptazol (pentylenetetrazol) convulsions, known drug [11]: antagonise; antagonism of maximal electroshock (MES) convulsions, known drug [12]: antagonise; antagonism of bicuculline convulsions, known drug [13]: antagonise

Row | SMILES | Kb [2, 14] [nM] | Ki [3] [nM] | further results
28 | c1cc(CN2CCCCC2)cc(OCCc2c[nH]cn2)c1 [Example 25, 4(5)-[2-[3-(Piperidinomethyl)phenoxy]ethyl]imidazole] | 25100 | 794 | –
